# From ChEMBL document CHEMBL1932930, “Synthesis and biological assessment of novel 2-thiazolylhydrazones and computational analysis of their recognition by monoamine oxidase B” (Eur J Med Chem, 2012)
# pIC50: −log10 of the molar value.
# Legend:
# [1] = target: T1, Amine oxidase [flavin-containing] A (Homo sapiens, UniProt P21397); assay: Inhibition of human recombinant MAO-A expressed in baculovirus infected BTI-TN-5B1-4 insect cells assessed as inhibition of hydrogen peroxide production from […] after 15 mins by fluorimetric method; conditions: bti-tn-5b1-4, 0.25 h
# T1 sequence (P21397 whole entry): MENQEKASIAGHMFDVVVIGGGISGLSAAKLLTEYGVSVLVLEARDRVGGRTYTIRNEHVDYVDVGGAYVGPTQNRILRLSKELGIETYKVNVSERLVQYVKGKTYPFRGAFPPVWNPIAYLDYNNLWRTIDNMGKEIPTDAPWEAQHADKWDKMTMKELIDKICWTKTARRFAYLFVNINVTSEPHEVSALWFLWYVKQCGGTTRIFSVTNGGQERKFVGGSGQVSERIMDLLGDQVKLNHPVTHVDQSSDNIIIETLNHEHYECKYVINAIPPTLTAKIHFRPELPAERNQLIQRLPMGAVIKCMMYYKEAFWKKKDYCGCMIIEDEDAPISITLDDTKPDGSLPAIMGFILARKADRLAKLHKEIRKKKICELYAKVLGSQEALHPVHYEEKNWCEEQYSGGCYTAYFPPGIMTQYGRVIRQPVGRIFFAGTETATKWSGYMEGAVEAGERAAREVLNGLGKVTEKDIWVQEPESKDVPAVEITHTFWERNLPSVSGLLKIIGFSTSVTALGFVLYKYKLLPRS
# [2] = target: T2, Amine oxidase [flavin-containing] B (Homo sapiens, UniProt P27338); assay: biochemical
# T2 sequence (P27338 whole entry): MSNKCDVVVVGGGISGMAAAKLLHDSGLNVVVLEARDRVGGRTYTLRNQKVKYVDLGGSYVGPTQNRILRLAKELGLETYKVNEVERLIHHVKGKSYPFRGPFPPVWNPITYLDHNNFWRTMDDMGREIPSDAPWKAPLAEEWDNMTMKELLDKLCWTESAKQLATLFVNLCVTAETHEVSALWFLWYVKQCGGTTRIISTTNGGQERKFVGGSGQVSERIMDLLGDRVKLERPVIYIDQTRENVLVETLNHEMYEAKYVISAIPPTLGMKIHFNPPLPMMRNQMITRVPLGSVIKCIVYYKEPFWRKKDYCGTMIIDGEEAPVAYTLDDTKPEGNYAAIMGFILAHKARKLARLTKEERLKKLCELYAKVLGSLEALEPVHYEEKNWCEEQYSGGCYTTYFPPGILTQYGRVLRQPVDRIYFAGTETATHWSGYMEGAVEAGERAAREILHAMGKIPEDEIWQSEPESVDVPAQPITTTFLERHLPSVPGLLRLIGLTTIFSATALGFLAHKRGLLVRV
# Description: Inhibition of human recombinant MAO-B expressed in baculovirus infected BTI-TN-5B1-4 insect cells assessed as inhibition of hydrogen peroxide production from p-tryptamine after 15 mins by fluorimetric method
# [3] = target: T1, Amine oxidase [flavin-containing] A; assay: Inhibition of human recombinant MAO-A expressed in baculovirus infected BTI-TN-5B1-4 insect cells assessed as inhibition of hydrogen peroxide production from […] at 100 uM after 15 mins by fluorimetric method; conditions: for inhibition at 100 µM: BTI-TN-5B1-4, human, 0.25 h; for inhibition (INH): human, bti-tn-5b1-4, 0.25 h, 100 µM
# [4] = target: T2, Amine oxidase [flavin-containing] B; assay: Inhibition of human recombinant MAO-B expressed in baculovirus infected BTI-TN-5B1-4 insect cells assessed as inhibition of hydrogen peroxide production from […] at 100 uM after 15 mins by fluorimetric method; conditions: BTI-TN-5B1-4, human, 0.25 h
# [5] = target: T2, Amine oxidase [flavin-containing] B; assay: Inhibition of human recombinant MAO-B expressed in baculovirus infected BTI-TN-5B1-4 insect cells assessed as inhibition of hydrogen peroxide production from […] at 1 mM after 15 mins by fluorimetric method; conditions: bti-tn-5b1-4, 0.25 h, 1000 µM
smiles,measurement,setting,value
Fc1ccc(-c2csc(N/N=C/c3ccccc3)n2)cc1,inhibition (INH),[1],Dose-dependent effect
same,pIC50,[2],6.10
same,inhibition at 100 µM,[3],40%
Fc1ccc(-c2csc(N/N=C/c3ccc(Cl)cc3)n2)cc1,inhibition (INH),[1],Dose-dependent effect
same,pIC50,[2],5.88
same,inhibition at 100 µM,[3],40%
COc1ccc(/C=N/Nc2nc(-c3ccc(F)cc3)cs2)cc1OC,inhibition (INH),[1],Dose-dependent effect
same,pIC50,[2],5.62
same,inhibition at 100 µM,[3],40%
COc1ccc(/C=N/Nc2nc(-c3ccc(F)cc3)cs2)cc1,inhibition (INH),[1],Dose-dependent effect
same,pIC50,[2],5.03
same,inhibition at 100 µM,[3],40%
Cc1ccccc1/C=N/Nc1nc(-c2ccc(F)cc2)cs1,inhibition (INH),[1],Dose-dependent effect
same,pIC50,[2],6.72
same,inhibition at 100 µM,[3],40%
Cc1ccc(/C=N/Nc2nc(-c3ccc(F)cc3)cs2)cc1,inhibition (INH),[1],Dose-dependent effect
same,pIC50,[2],4.35
same,inhibition (INH),[3],Not Active
Clc1ccc(-c2csc(N/N=C/c3ccccc3)n2)cc1,inhibition (INH),[1],Dose-dependent effect
same,inhibition at 100 µM,[4],40%
same,inhibition at 100 µM,[3],40%
COc1ccc(/C=N/Nc2nc(-c3ccc(Cl)cc3)cs2)cc1OC,inhibition (INH),[1],Dose-dependent effect
same,inhibition at 100 µM,[4],40%
same,inhibition at 100 µM,[3],40%
Cc1ccccc1/C=N/Nc1nc(-c2ccc(Cl)cc2)cs1,inhibition (INH),[1],Dose-dependent effect
same,inhibition at 100 µM,[4],40%
same,inhibition at 100 µM,[3],40%
COc1ccc(/C=N/Nc2nc(-c3ccc(Cl)cc3)cs2)cc1,inhibition (INH),[1],Dose-dependent effect
same,inhibition at 100 µM,[4],40%
same,inhibition at 100 µM,[3],40%
Clc1ccc(/C=N/Nc2nc(-c3ccc(Cl)cc3)cs2)cc1,inhibition (INH),[1],Dose-dependent effect
same,inhibition at 100 µM,[4],40%
same,inhibition at 100 µM,[3],40%
Cc1ccc(/C=N/Nc2nc(-c3ccc(Cl)cc3)cs2)cc1,inhibition (INH),[1],Dose-dependent effect
same,inhibition at 100 µM,[4],40%
same,inhibition (INH),[3],Not Active
C#CCN(C)CCCOc1ccc(Cl)cc1Cl [CLORGILINE],inhibition (INH),[1],Dose-dependent effect
O=C(NCCN1CCOCC1)c1ccc(Cl)cc1 [MOCLOBEMIDE],inhibition (INH),[1],Dose-dependent effect
same,inhibition (INH),[5],Not Active
